Test results: patent US8623416B2 (priority 2009, dated 2014)
“Also recorded” adds a separate entry of the source. Read-outs that look alike come from different tables or passages of the source.

Key:
Yellow Fever [1] = tested on: Yellow Fever; parameters: species or system Syrian hamsters; details: hamster, in vivo
Yellow Fever [2] = tested on: Yellow Fever; parameters: species or system Syrian hamsters; details: hamster, in vivo; remark: listed apart in the source
[3] = tested on: murine cytomegalovirus (MCMV); type: in vivo, Balb/c mice; details: for viral titers in lungs and salivary glands vs other groups / viral titers in spleen and liver vs control: day 7
[4] = tested on: Eastern Equine Encephalitis Virus; parameters: species or system hamsters (Syrian golden); details: hamster, in vivo
[5] = tested on: Eastern Equine Encephalitis Virus; parameters: species or system mice; details: mouse, in vivo
human Hepatitis B virus = experiment: Hepatitis B virus replication in primary human hepatocytes, PCR (Example 19); type: cell-based
Method: The purpose of this experiment was to determine the antiviral activity of squalamine against human Hepatitis B virus. The experiment was conducted in vitro, using primary human hepatocytes.
Experimental design: Primary human hepatocytes were established in a 96 well microtiter plate. Squalamine was then added at concentrations of 2, 6 or 20 μg/ml followed by an inoculum of Hep B virus, and then in culture for 16 hours, after which fresh medium was introduced, and the cells maintained in culture for 14 days. In a second experiment, squalamine at 6 or 20 μg/ml was added to the cells at 24 hours post inoculation for a 16 hour exposure, followed by removal of medium, replacement with fresh medium, and continued culture for 14 days. Viral growth was measured by PCR using viral specific primers and normalized to the total RNA extracted from each corresponding well.

[6] = for Toxicity: hamster, in vivo, sc
[7] = tested on: human immunodeficiency virus (HIV)
[8] = in vivo; cited from earlier work
[9] = in vivo; cited from earlier work; remark: listed apart in the source
[10] = tested on: human Hepatitis Delta virus; experiment: Hepatitis Delta virus replication in primary human hepatocytes, PCR (Example 20)
[11] = type: physicochemical; details: 0.1 ml squalamine lactate 10 mg/ml in water + 1 volume 0.1M solution of the anion, turbid = insoluble salt form
[12] = 10 mg of squalamine as a phosphate suspension
[13] = squalamine phosphate 10 mg/kg/day s.c.
[14] = mouse, in vivo, ip, 10 mg/kg/day
[15] = 20 μg/ml, added during initial stages of infection

## 3 beta-N-1-(N-[3-(4-aminobutyl)]-1,3-diaminopropane)-7 alpha,24 zeta-dihydroxy-5 alpha-cholestane 24-sulfate [squalamine]
Yellow Fever [1]
  survival: 70%
Yellow Fever [2]
  animals cured: 40%
  outcome of treatment of established infection: cure a lethal infection
  survival through day 21: 60%
[3]; 10 mg/kg/day i.p.
  viral titers in lung compared with control: trend toward reduction
  viral titers in lungs and salivary glands vs other groups: no significant differences
  viral titers in spleen and liver vs control: significantly lower than in the control cohort
[3]; [13]
  viral titers in lungs and salivary glands vs other groups: no significant differences
  viral titers in spleen and liver vs control: significantly lower than in the control cohort
[3]; mouse, in vivo
  virus in the liver and spleen: significantly reduced; also recorded: undetectable levels
[3]; [14]
  effect on viral growth in the salivary gland: little effect
  reduction in viral growth in liver, spleen, and lung: greater than 10 fold
  virus in the liver and spleen: undetectable levels
[4]
  effect on survival: extended survival; also recorded: increase survival
  effect on viremia: significantly reduce viremia
  hamsters still alive at the end of treatment: 6/10
  plasma concentrations of virus lower than vehicle: about 100 fold
[5]
  efficacy in mice: ineffective
Human Hepatitis B virus; 2 μg/ml, added only at the outset of infection
  inhibition of viral production: 14%
Human Hepatitis B virus; 6 μg/ml, added at 24 hours
  inhibition of viral production: 30%
Human Hepatitis B virus; 6 μg/ml, added at the onset of infection
  inhibition of viral production: 54%
Human Hepatitis B virus; 20 μg/ml, added at 24 hours
  inhibition of viral production: 64%
Human Hepatitis B virus; [15]
  inhibition of viral production: 83%
[6]; 15 mg/kg/day
  Toxicity: Mild/moderate by day 1
[6]; 30 mg/kg/day
  Toxicity: moderate
[6]; 60 mg/kg/day
  Toxicity: Severe, open wounds
Dengue virus
  cell viability: not diminished
  inhibition of viral infection: 100%
[7]
  Toxicity: no evidence of toxicity
  inhibition of HIV infection: about 50%; also recorded: about 20%
[8]
  tolerability: well tolerated
[9]
  tolerability: well tolerated
[10]; [15]
  inhibition of viral production: 90%
[10]; 60 μg/ml, primary human hepatocytes
  cytotoxicity in vitro: cytotoxic

## O=C[C@H](O)[C@@H](O)[C@H](O)[C@H](O)COP(=O)(O)O [Glucose 6-phosphate]
[11]
  Turbidity: No and no

## CC(=O)C(=O)[O-].[Na+] [Sodium pyruvate]
[11]
  Turbidity: No and no

## O=P([O-])([O-])OP(=O)([O-])OP(=O)([O-])[O-].[Na+].[Na+].[Na+].[Na+].[Na+] [Sodium triphosphate]
[11]; triphosphate
  Turbidity: Yes and yes

## NC(=O)c1ncn([C@@H]2O[C@H](CO)[C@@H](O)[C@H]2O)n1 [ribavirin, reference compound]
Yellow Fever [1]
  survival vs placebo: fared no better than the placebo-treated cohort

## squalamine phosphate
Yellow Fever [1]
  survival: 70%
[12]
  water added until fully dissolved: about 250 ml
[6]; 15 mg/kg/day
  Toxicity: none
[6]; 30 mg/kg/day
  Toxicity: none
[6]; 60 mg/kg/day
  Toxicity: none
[6]; s.c. dosing at 10 mg/ml, recorded 7 days post injection
  lesions at the sites of administration: no lesions
0.1 ml of 10 mg/ml s.c.
  persistence of local signs (lactate: signs and symptoms; phosphate: slight swelling): about 1 week
human, in vivo, sc
  local signs at injection site: free of visible signs of irritation, save for a slight swelling
  pain on injection: no pain other than that produced by the needle prick
